Data taken from patent US20070009617A1, “Method for preventing fungal growth in plants” (priority 2003, published 2007).

How the values were obtained:
Assay in all cases: mycelial growth from inoculum plugs in amended basal nutrient solution
Rhizoctonia solani = type: cell-based; settings: fungicide control
Experimental: (§1) The efficacy of the garlic extract was tested against nine (9) soil-borne fungi that cause root and lower stem rots of plants. The fungal pathogens included: Pythium aphanidermatum, Pythium irregular, Pythium ultimum, Phytophthora capsici, Phytophthora cinnamomi, Phytophthora nicotiana, Rhizoctonia solani, Fusarium oxysporum fsp. lycopersici, Fusarium oxysporum f.sp. spinaciae, and Thielaviopsis basicola. All isolates used in this investigation were known to be pathogenic to various cultivated plant species.
(§2) All isolates of Pythium aphanidermatum, Pythium irregular, Pythum ultimum, Phytophthora capsici, Phytophthora cinnamomi, Phytophthora nicotiana, Rhizoctonia solani, Fusarium oxysporum f.sp. lycopersici, Fusarium oxysporum f.sp. spinaciae were grown on standard corn meal agar (CMA) for 8 to 9 days. Plugs from inoculum plates were taken using a #4 cork borer (5 mm diameter). Inoculum plugs were placed into 5-cm sterile plastic petri dishes containing 10 ml of a basal nutrient solution that consisted of 60% (v/v) clarified V-8 juice and sterile distilled water (SDW). Basal nutrient solutions were amended with the appropriate treatments. […] Cultures were placed into a growth chamber and maintained in the dark at 22(C(1(C. After 48 hours, mycelial growth (if any was visible) from culture plugs was measured.

[1] = test system: Pythium aphanidermatum, Pythium irregular, Pythium ultimum; type: cell-based, Pythium species; settings: basal nutrient solution amended with fungicide control; 48 hours
Experimental: as §1, §2

[2] = test system: Phytophthora capsici, Phytophthora cinnamomi, Phytophthora nicotiana; type: cell-based, Phytophthora species; settings: basal nutrient solution amended with fungicide control; 48 hours
Experimental: as §1, §2

SMILES	growth on amended basal nutrient solution (Rhizoctonia solani; first replication (inappropriate concentration))	growth on amended basal nutrient solution (Rhizoctonia solani; second replication)	growth from the inoculum plugs [1]	growth from the inoculum plugs [2]
O=[N+]([O-])c1c(Cl)c(Cl)c(Cl)c(Cl)c1Cl [PCNB]	limited amount of growth	did not grow	–	–
COCC(=O)N(c1c(C)cccc1C)C(C)C(=O)OC (stereo not shown) [metalaxyl]	–	–	none	none
